Columns and labels:
[1] = molecular target: T1, full-length recombinant rat vitamin D receptor (Rattus norvegicus, UniProt P13053); assay: Vitamin D receptor competitive binding with [3H]-1,25-(OH)2-D3; settings: compared with native hormone 1,25(OH)2D3; FIG. 1
T1 construct: Full-length recombinant rat receptor was expressed in E. coli BL21(DE3) Codon Plus RIL cells; histidine tag (C); made in house; host or cells: E. coli BL21(DE3) Codon Plus RIL
T1 sequence (P13053 1-423): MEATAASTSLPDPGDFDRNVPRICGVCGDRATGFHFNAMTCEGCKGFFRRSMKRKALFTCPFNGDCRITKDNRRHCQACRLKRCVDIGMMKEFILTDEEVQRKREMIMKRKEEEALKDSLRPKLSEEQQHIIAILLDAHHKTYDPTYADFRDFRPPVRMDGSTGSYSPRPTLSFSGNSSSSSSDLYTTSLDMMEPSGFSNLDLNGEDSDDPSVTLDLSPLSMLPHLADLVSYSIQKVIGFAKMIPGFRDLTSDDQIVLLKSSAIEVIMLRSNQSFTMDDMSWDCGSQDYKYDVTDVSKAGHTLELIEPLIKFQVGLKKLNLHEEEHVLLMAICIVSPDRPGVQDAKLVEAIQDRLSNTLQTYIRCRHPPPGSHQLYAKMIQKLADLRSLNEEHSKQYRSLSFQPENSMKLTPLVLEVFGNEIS
Source text: FIG. 1 is a graph comparing the relative activity of (20S/24R) 2-MD2 and 1,25(OH)2D3 to compete for binding with [^3H]-1,25-(OH)2-D3 to the full-length recombinant rat vitamin D receptor.
Full-length recombinant rat receptor was expressed in E. coli BL21(DE3) Codon Plus RIL cells and purified to homogeneity using two different column chromatography systems. The first system was a nickel affinity resin that utilizes the C-terminal histidine tag on this protein. The protein that was eluted from this resin was further purified using ion exchange chromatography (S-Sepharose Fast Flow). Aliquots of the purified protein were quick frozen in liquid nitrogen and stored at −80° C. until use. For use in binding assays, the protein was diluted in TEDK50 (50 mM Tris, 1.5 mM EDTA, pH 7.4, 5 mM DTT, 150 mM KCl) with 0.1% Chaps detergent. […]
Unlabeled ligands were dissolved in ethanol and the concentrations determined using UV spectrophotometry (1,25(OH)2D3: molar extinction coefficient=18,200 and λmax=265 nm; Analogs: molar extinction coefficient=42,000 and λmax=252 nm). […]
Radiolabeled and unlabeled ligands were added to 100 mcl of the diluted protein at a final ethanol concentration of ≦10%, mixed and incubated overnight on ice to reach binding equilibrium. […] Total binding was determined from the tubes containing only radiolabeled ligand.

[2] = Intestinal calcium transport (everted gut sac method); type: in vivo, Sprague-Dawley rats; settings: compared with 1,25-(OH)2D3, rats, four consecutive ip doses, FIG. 5
Source text: FIG. 5 is a bar graph comparing the intestinal calcium transport activity of (20S/24R) 2-MD2 with that of 1,25(OH)2D3.
(§1) Male, weanling Sprague-Dawley rats were placed on Diet 11 (Suda et al. J. Nutr. 100:1049, 1970) (0.47% Ca) diet+vitamins AEK for one week followed by Diet 11 (0.02% Ca)+AEK for 3 weeks. The rats were then switched to a diet containing 0.47% Ca for one week followed by two weeks on a diet containing 0.02% Ca. Dose administration began during the last week on 0.02% calcium diet. Four consecutive ip doses were given approximately 24 hours apart. Twenty-four hours after the last dose, blood was collected from the severed neck and the concentration of serum calcium determined as a measure of bone calcium mobilization. The first 10 cm of the intestine was also collected for intestinal calcium transport analysis using the everted gut sac method.

[3] = test system: Human promyelocytic leukemia (HL60) cells; assay: HL-60 cell differentiation (nitro blue tetrazolium reduction); type: cell-based; settings: compared with 1,25-(OH)2D3; FIG. 2
Procedure: FIG. 2 is a graph comparing the percent HL-60 cell differentiation as a function of the concentration of (20S/24R) 2-MD2 with that of 1,25(OH)2D3.
The study drugs were dissolved in ethanol and the concentrations determined using UV spectrophotometry. Serial dilutions were prepared so that a range of drug concentrations could be tested without changing the final concentration of ethanol (≦0.2%) present in the cell cultures.
Human promyelocytic leukemia (HL60) cells were grown in RPMI-1640 medium containing 10% fetal bovine serum. The cells were incubated at 37° C. in the presence of 5% CO2.
HL60 cells were plated at 1.2×10^5 cells/ml. Eighteen hours after plating, cells in duplicate were treated with drug. Four days later, the cells were harvested and a nitro blue tetrazolium reduction assay was performed (Collins et al., 1979; J. Exp. Med. 149:969-974). The percentage of differentiated cells was determined by counting a total of 200 cells and recording the number that contained intracellular black-blue formazan deposits. Verification of differentiation to monocytic cells was determined by measuring phagocytic activity (data not shown).

[4] = Bone calcium mobilization (serum calcium); type: in vivo, Sprague-Dawley rats; settings: compared with 1,25-(OH)2D3, rats, four consecutive ip doses, FIG. 4
Source text: FIG. 4 is a bar graph comparing the bone calcium mobilization activity of (20S/24R) 2-MD2 with that of 1,25(OH)2D3.
as §1

[5] = test system: 24-hydroxylase (24Ohase) gene promoter in ROS 17/2.8 (bone) cells; assay: In vitro transcription assay (24-hydroxylase promoter luciferase reporter); type: cell-based; settings: compared with 1,25-(OH)2D3; ROS 17/2.8 cells, 24Ohase-luciferase; FIG. 3
Procedure: FIG. 3 is a graph comparing the in vitro transcription activity of (20S/24R) 2-MD2 with that of 1,25(OH)2D3.
Transcription activity was measured in ROS 17/2.8 (bone) cells that were stably transfected with a 24-hydroxylase (24Ohase) gene promoter upstream of a luciferase reporter gene (Arbour et al., 1998). Cells were given a range of doses. Sixteen hours after dosing the cells were harvested and luciferase activities were measured using a luminometer. RLU=relative luciferase units.

For `C=C1[C@H](O)CC(=C/C=C2\CCC[C@]3(C)C([C@@H](C)/C=C/[C@@H](C)C(C)(C)O)CC[C@@H]23)C[C@H]1O` (stereo in doubt) [2-methylene-19-nor-(20S-24epi)-1α,25-dihydroxyvitamin D2], the “binding to the vitamin D receptor” value [1] was “almost equal to the native hormone”, the “intestinal calcium transport activity” value [2] was “approximately equal to 1,25-(OH)2D3” and the “inducing differentiation of HL-60 cells” value [3] was “more activity than 1,25-(OH)2D3”. For the same molecule, the “bone calcium mobilizing activity” value [4] was “more bone calcium mobilizing activity than 1,25-(OH)2D3” and the causing transcription [5] was “more effective than 1,25-(OH)2D3”.

Source: patent US20060183721A1, “2-Methylene-19-nor-(20S-24epi)-1alpha,25-dihydroxyvitamin D2” (Wisconsin Alumni Research Foundation, priority 2005, published 2006)
